Numbers after ± are expanded uncertainties.
What was measured:
[1] = 101 kPa, Liquid; for viscosity: Capillary tube (Ostwald / Ubbelohde) method; for speed of sound: Sing-around technique in a fixed-path interferometer; for mass density: Vibrating tube method
[2] = xn = mol fraction of the nth substance listed; settings: 101 kPa, Liquid, x2 = 0; for viscosity: Capillary tube (Ostwald / Ubbelohde) method; for speed of sound: Sing-around technique in a fixed-path interferometer; for mass density: Vibrating tube method

Structure (SMILES) | viscosity ([1]; 293.15 K) [mPa·s] | speed of sound ([1]; 293.15 K) [m/s] | mass density ([1]; 293.15 K) [kg/m3] | viscosity ([1]; 298.15 K) [mPa·s] | speed of sound ([1]; 298.15 K) [m/s] | mass density ([1]; 298.15 K) [kg/m3] | viscosity ([1]; 303.15 K) [mPa·s] | speed of sound ([1]; 303.15 K) [m/s] | mass density ([1]; 303.15 K) [kg/m3] | viscosity ([2]; 293.15 K) [mPa·s] | speed of sound ([2]; 293.15 K) [m/s] | mass density ([2]; 293.15 K) [kg/m3] | viscosity ([2]; 298.15 K) [mPa·s] | speed of sound ([2]; 298.15 K) [m/s] | mass density ([2]; 298.15 K) [kg/m3] | viscosity ([2]; 303.15 K) [mPa·s] | speed of sound ([2]; 303.15 K) [m/s] | mass density ([2]; 303.15 K) [kg/m3]
CC(C)=O [acetone] | 0.32 ± 0.007 | 1185 ± 2 | 791.11 ± 0.15 | 0.306 ± 0.007 | 1162 ± 2 | 785.41 ± 0.15 | 0.292 ± 0.006 | 1140 ± 2 | 779.66 ± 0.15 | – | – | – | – | – | – | – | – | –
CCCC(C)=O [pentan-2-one] | 0.496 ± 0.011 | 1233 ± 2 | 806.26 ± 0.23 | 0.469 ± 0.01 | 1213 ± 2 | 801.42 ± 0.23 | 0.444 ± 0.009 | 1192 ± 2 | 796.58 ± 0.23 | – | – | – | – | – | – | – | – | –
CC(C)=O [acetone] + CC1CCCC1 | – | – | – | – | – | – | – | – | – | 0.32 ± 0.007 | 1185 ± 2 | 791.11 ± 0.15 | 0.306 ± 0.007 | 1162 ± 2 | 785.41 ± 0.15 | 0.292 ± 0.006 | 1140 ± 2 | 779.66 ± 0.15
CCC(C)=O [butanone] | 0.398 ± 0.009 | 1213 ± 2 | 804.95 ± 0.23 | 0.378 ± 0.008 | 1192 ± 2 | 799.74 ± 0.23 | 0.36 ± 0.008 | 1171 ± 2 | 794.48 ± 0.23 | – | – | – | – | – | – | – | – | –
CC1CCCC1 [methylcyclopentane] | 0.504 ± 0.016 | 1197 ± 5 | 746.64 ± 2 | 0.476 ± 0.016 | 1174 ± 5 | 741.94 ± 2 | 0.45 ± 0.015 | 1150 ± 5 | 737.21 ± 1.9 | – | – | – | – | – | – | – | – | –
CCCC(C)=O [pentan-2-one] + CC1CCCC1 | – | – | – | – | – | – | – | – | – | 0.496 ± 0.011 | 1233 ± 2 | 806.26 ± 0.23 | 0.469 ± 0.01 | 1213 ± 2 | 801.42 ± 0.23 | 0.444 ± 0.009 | 1192 ± 2 | 796.58 ± 0.23
CCC(C)=O [butanone] + CC1CCCC1 | – | – | – | – | – | – | – | – | – | 0.398 ± 0.009 | 1213 ± 2 | 804.95 ± 0.23 | 0.378 ± 0.008 | 1192 ± 2 | 799.74 ± 0.23 | 0.36 ± 0.008 | 1171 ± 2 | 794.48 ± 0.23

From the NIST ThermoML archive (doi:10.1016/j.jct.2005.08.002)
